Measured values published in article PMC6504873, “High-throughput screening of the Plasmodium falciparum cGMP-dependent protein kinase identified a thiazole scaffold which kills erythrocytic and sexual stage parasites” (Scientific Reports, 2019).

Key:
[1] = AM_Perm (artificial membrane permeability); format: in vitro ADME
AuroraB = AuroraB (Homo sapiens, UniProt Q96GD4); assay: Preliminary safety test on human AuroraB kinase; format: biochemical
Description: We explored the binding mode by also testing compounds on the gatekeeper mutant enzyme TQ PfPKG. […] A preliminary safety test was performed on human AuroraB and LCK kinases which often underpin toxicity issues. […] Further assays for compound characterization included determination of solubility and cytotoxicity (HepG2 inhibition).

HuPKGIα = molecular target: T1, HuPKGIα (Homo sapiens, UniProt Q13976); assay: Kinase Glo enzymatic assay, human PKG; format: biochemical; conditions: human PKGIα; read-out: Hu PKGIα
T1 construct: His6; host or cells: Spodoptera frugiperda 21 cells (baculovirus)
T1 sequence (Q13976 1-671): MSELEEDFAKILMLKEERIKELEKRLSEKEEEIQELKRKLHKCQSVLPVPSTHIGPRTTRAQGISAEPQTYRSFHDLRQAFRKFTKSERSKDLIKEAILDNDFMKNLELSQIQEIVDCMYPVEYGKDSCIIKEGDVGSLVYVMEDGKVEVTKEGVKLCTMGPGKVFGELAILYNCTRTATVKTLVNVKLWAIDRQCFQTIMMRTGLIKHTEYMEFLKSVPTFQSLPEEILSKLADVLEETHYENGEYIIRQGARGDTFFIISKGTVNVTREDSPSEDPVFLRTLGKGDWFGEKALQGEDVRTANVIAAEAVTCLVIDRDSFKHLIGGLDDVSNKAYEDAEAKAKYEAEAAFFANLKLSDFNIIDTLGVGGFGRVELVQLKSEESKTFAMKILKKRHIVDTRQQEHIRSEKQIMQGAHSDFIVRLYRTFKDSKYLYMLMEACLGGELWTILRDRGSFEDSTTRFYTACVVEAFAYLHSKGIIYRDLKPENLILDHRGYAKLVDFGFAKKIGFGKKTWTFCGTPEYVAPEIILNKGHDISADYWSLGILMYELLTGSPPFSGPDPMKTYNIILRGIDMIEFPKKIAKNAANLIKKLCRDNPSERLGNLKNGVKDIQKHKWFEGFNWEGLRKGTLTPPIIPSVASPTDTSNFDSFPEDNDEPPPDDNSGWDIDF
Description: To identify new PKG inhibitor scaffolds, the 1.7 million GlaxoSmithKline Full Diversity collection was tested at a single final concentration of 10 μM against recombinant full length wild type (WT) PfPKG using a Kinase Glo-based assay (Promega). […] Fresh samples of these primary hits were tested in duplicate against WT PfPKG and also against human PKGIα (HuPKGIα) (Supplementary Fig. 1) at a final concentration of 10 μM (confirmation step).
The expression vector encoding His6-cGK1α (HuPKGIα) was used to generate recombinant baculoviruses using the Bac-to-Bac system (Invitrogen) following the manufacturer’s protocol. These baculoviruses were used to infect Spodoptera frugiperda 21 cells (1.5 × 10^6/ml) at a multiplicity of infection of 5 and the infected cells were harvested 48 hours post-infection. His6-cGK1α was purified on Cobalt agarose and dialysed into 50 mM Tris-HCl pH 7.5, 0.1 mM EGTA, 150 mM NaCl, 270 mM sucrose, 0.03% Brij-35, 0.1% 2-mercaptoethanol, 1 mM benzamidine, 0.1 mM phenylmethylsulfonyl fluoride (PMSF).
Initial optimization of the PKG assay was performed manually in 384-well plates and analysed with GraFit 7. The buffer for all assays was 25 mM HEPES pH 7.3 (GIBCO), 10 mM MgCl2 (Sigma), 2 mM DTT (Sigma), 0.01 mM cGMP (Sigma), 0.1 mg/ml BSA (Ambion). Enzymatic activity was tested using a luminescence-based kit (Promega KinaseGlo). Addition of the first reagent depletes the unused ATP and addition of the second reagent converts ADP (product of the kinase reaction) to ATP, which is then measured through a luciferin/luciferase reaction. The amount of luminescence is directly proportional to ATP turnover by the kinase. The kit was chosen because it can be miniaturized to small volumes (i.e. 4 µl) in 1536-well plates, for use in HTS.
We used PKA peptide substrate (SCP0212, Sigma-Aldrich) for WT and TQ PfPKG, dissolved in milliQ water at a final concentration of 5 mM, and Long S6 peptide substrate (produced at the University of Dundee, sequence […]) for HuPKGIα, dissolved in water at a final concentration of 30 mM.
We calculated the Michaelis-Menten (Km) constant for ATP and peptide substrate (PKA or Long S6) for all enzymes using GraphPad Prism (Supplementary Figs 2 and 3 and Supplementary Table 3). In order to identify different types of PKG inhibitors, including ATP competitive or non-competitive inhibitors, as well as inhibitors that bind to the peptide substrate pocket, we performed all assays using ATP and peptide substrate at a concentration equal to the Km. We also determined enzyme activity by calculating ATP turnover (Kcat) over the Km (Supplementary Table 3). The Kcat was calculated as (Vmax*slope)/[E] where Vmax is the maximum velocity and [E] is the concentration of the enzyme.
The plates containing the compounds were prepared at GSK in Upper Providence or Stevenage. Compounds were tested at a single final concentration of 10 µM or in a dose response with a range of concentrations starting from 100 μM to 1.6 nM (1 in 3 serial dilutions). Compounds were dispensed in the plates at the required concentration in a 40 nl volume. All plates (1536-well white Greiner) contained 40 nl of DMSO in lanes 11 and 12 (control 1, 100% enzyme activity) and were empty in lanes 35 and 36 (control 2, 0% enzyme activity). The plates were removed from −20 °C 1 hour before starting the assay. Using a Multidrop Combi dispenser (Thermo Scientific), 2 µl of the buffer containing ATP and the substrate were added to all wells then 2 µl of buffer only were added to column 35 and 36. Finally 2 µl of buffer containing the enzyme were dispensed in all the plate wells except for lanes 35 and 36. After 1 hour incubation at 21 °C 2 µl of ADP-Glo reagent (Promega KinaseGlo kit), previously supplemented with 0.02% CHAPS (Sigma), were added to all wells.

HepG2 cells = assay: Cytotoxicity assay (CellTiter-Glo); format: cell-based; conditions: Homo sapiens; HepG2 cytotoxicity; read-out: HepG2
Description: Cytotoxicity assays were performed on HepG2 cells as previously described. HepG2 cells were removed from a T-175 TC flask using 5 mL Eagle’s MEM (containing 10% FBS, 1% NEAA, 1% penicillin/streptomycin) and dispersed in the medium. Seeding density was checked to ensure that new mono-layers were not more than 50% confluent at the time of harvesting. Cells were added to 500 mL of the same medium at a final density of 1.2 × 10^5 cells/mL. They were then dispensed (25 μL, about 3,000 cells per well) into 384-well clear-bottom plates using a Multidrop Combi dispenser. Test compounds (250 nL) were dispensed into the plates with an EchoH liquid handler prior to addition of the cells. Plates were incubated for 48 h at 37 °C, 5% CO2. After incubation, plates were equilibrated at room temperature for 30 minutes before proceeding to develop the luminescent signal. The CellTiter-GloH Reagent was allowed to equilibrate at room temperature for 30 minutes and added to the plates (25 μL per well) using a Multidrop Combi dispenser. Plates were left for 10 minutes at room temperature for stabilization and then read using a Perkin Elmer ViewLux.

Sequence of AuroraB (Q96GD4 whole entry): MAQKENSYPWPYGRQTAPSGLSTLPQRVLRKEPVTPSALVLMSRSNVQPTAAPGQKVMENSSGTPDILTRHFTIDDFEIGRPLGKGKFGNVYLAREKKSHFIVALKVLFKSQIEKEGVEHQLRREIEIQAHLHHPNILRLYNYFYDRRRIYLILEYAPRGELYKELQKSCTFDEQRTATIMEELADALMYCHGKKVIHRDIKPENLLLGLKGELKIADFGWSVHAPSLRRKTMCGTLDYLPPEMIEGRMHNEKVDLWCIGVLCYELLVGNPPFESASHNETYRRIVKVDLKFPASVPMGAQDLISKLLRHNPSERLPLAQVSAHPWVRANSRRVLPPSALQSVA

Compound: CCn1cc(-c2ccncn2)c(-c2cccc(NS(=O)(=O)c3cc(F)ccc3F)c2)n1 [Compound 2]
- AM Perm [1]: 50.1 ×10⁻⁶ cm/s
- IC50 (AuroraB): > 31.6 µM
- IC50 (HuPKGIα): > 100 µM
- IC50 (HepG2 cells): > 100 µM

Compound: Cc1ccc(S(C)(=O)=O)cc1Nc1nccc(-c2sc(CC(N)=O)nc2-c2ccccc2)n1 [Compound 3]
- AM Perm [1]: 36.7 ×10⁻⁶ cm/s
- IC50 (AuroraB): > 31.6 µM
- IC50 (HuPKGIα): > 100 µM
- IC50 (HepG2 cells): 50.1 µM

Compound: CC(C)(CN)c1cc(-c2ccc(Cl)c(O)c2)c(-c2ccncc2)o1 [Compound 4]
- AM Perm [1]: 53.1 ×10⁻⁶ cm/s
- IC50 (AuroraB): > 31.6 µM
- IC50 (HuPKGIα): 15 µM
- IC50 (HepG2 cells): 12.6 µM

Compound: CCn1c(-c2nonc2N)nc2c(-c3ccccc3)ncc(CN(C)C3CCN(C)CC3)c21 [Compound 5]
- AM Perm [1]: 22.9 ×10⁻⁶ cm/s
- IC50 (AuroraB): 12.6 µM
- IC50 (HuPKGIα): 40.3 µM
- IC50 (HepG2 cells): 12.6 µM

Compound: CNS(=O)(=O)c1cccc(Nc2ccnc(Nc3cccc(S(=O)(=O)NC)c3)n2)c1 [Compound 6]
- AM Perm [1]: 12.7 ×10⁻⁶ cm/s
- IC50 (AuroraB): 0.0631 µM
- IC50 (HuPKGIα): 44.2 µM
- IC50 (HepG2 cells): 25.1 µM

Compound: COc1ccc(-c2c(-c3cccc(C(=O)N4CCN(C)CC4)c3)oc3ncnc(N)c23)cc1 [Compound 7]
- AM Perm [1]: 32.4 ×10⁻⁶ cm/s
- IC50 (AuroraB): 3.2 µM
- IC50 (HuPKGIα): > 100 µM
- IC50 (HepG2 cells): > 100 µM

Compound: COc1ccc(CCNC(=O)CSc2ncnc3[nH]ncc23)cc1OC [Compound 8]
- AM Perm [1]: 7 ×10⁻⁶ cm/s
- IC50 (AuroraB): > 31.6 µM
- IC50 (HuPKGIα): > 100 µM
- IC50 (HepG2 cells): > 100 µM

Compound: COc1cccc(Nc2nc(-c3ccncc3)cc(N3CCN(C)CC3)n2)c1 [Compound 9]
- AM Perm [1]: 59.9 ×10⁻⁶ cm/s
- IC50 (AuroraB): > 31.6 µM
- IC50 (HuPKGIα): > 100 µM
- IC50 (HepG2 cells): 5 µM

Compound: COc1cc(CS(C)(=O)=O)ccc1Nc1nc(Nc2cc(F)ccc2C(N)=O)c2cc[nH]c2n1 [Compound 10]
- AM Perm [1]: 7.7 ×10⁻⁶ cm/s
- IC50 (AuroraB): > 31.6 µM
- IC50 (HuPKGIα): > 100 µM
- IC50 (HepG2 cells): > 100 µM

Compound: O=C(N[C@@H](CO)c1ccccc1)c1ccc2cncc(-c3cn[nH]c3)c2n1 [Compound 11]
- AM Perm [1]: 8.6 ×10⁻⁶ cm/s
- IC50 (AuroraB): 0.2 µM
- IC50 (HuPKGIα): 6.1 µM
- IC50 (HepG2 cells): > 100 µM

Compound: NCCNCc1ccc(-c2cc3ccncc3cc2OC2CCNCC2)s1 [Compound 12]
- AM Perm [1]: 1.2 ×10⁻⁶ cm/s
- IC50 (AuroraB): 10 µM
- IC50 (HuPKGIα): 13.8 µM
- IC50 (HepG2 cells): > 100 µM

Compound: CNCCOc1cnc(-c2ccoc2C)c(-c2ccc3cnccc3c2)c1 [Compound 13]
- AM Perm [1]: 43.1 ×10⁻⁶ cm/s
- IC50 (AuroraB): > 31.6 µM
- IC50 (HuPKGIα): 7.4 µM
- IC50 (HepG2 cells): 63.1 µM

Compound: O=C(c1cccc(OCc2cccnc2)c1)N1CCc2sccc2C1CN1CCCCC1 (stereo not drawn) [Compound 14]
- AM Perm [1]: 55.1 ×10⁻⁶ cm/s
- IC50 (AuroraB): > 31.6 µM
- IC50 (HuPKGIα): > 100 µM
- IC50 (HepG2 cells): > 100 µM

Compound: Nc1ccc2c(-c3ccncc3)c(-c3ccc(Cl)c(O)c3)[nH]c2n1 [Compound 15]
- AM Perm [1]: 11 ×10⁻⁶ cm/s
- IC50 (AuroraB): 4 µM
- IC50 (HuPKGIα): 45.2 µM
- IC50 (HepG2 cells): 20 µM

Compound: Nc1nc(Nc2cccc3cnccc23)nn1C(=O)C1CCCCC1 [Compound 16]
- AM Perm [1]: 33.9 ×10⁻⁶ cm/s
- IC50 (AuroraB): 4 µM
- IC50 (HuPKGIα): 22.4 µM
- IC50 (HepG2 cells): 79.4 µM
